According to ChEMBL document CHEMBL4393743, “Anti-tumor activity evaluation of novel tubulin and HDAC dual-targeting inhibitors” (Bioorg Med Chem Lett, 2019):

Key:
HCT-116 = assay: Antiproliferative activity against human HCT116 cells assessed as cell growth inhibition incubated for 72 hrs by MTT assay; assay type: functional, cell-based; conditions: HCT-116, 72 h
A549 = assay: Induction of apoptosis in human A549 cells assessed as late apoptotic cells at 10 uM incubated for 72 hrs by Annexin V-FITC/propidium iodide-staining based flow cytometric analysis (reference value: 5.69%); assay type: functional

IC50 (HCT-116): 7.46 µM
SMILES: COc1ccc(/C=C(\C)C(=O)c2cc(OC)c(OC)c(OC)c2)cc1OCCCC(=O)NO
Activity (A549): 28.5%
